Laboratory results published in US12061143B2, “Methods for rapid determinations of antibiotic susceptibility phenotypes” (priority 2018, dated 2024).
In brackets after ≈: the same amount, converted by molar mass. Read-outs that look alike come from different tables or passages of the source.

Key:
Format in all cases: cell-based
A. nosocomialis M2 = experiment: MIC by broth microdilution AST; conditions: for MIC: microdilution from pure culture; for MIC (S/I/R): class according to 2016 CLSI handbook
Procedure: (§1) Varied counts of bacteria were mixed with human blood and diluted 1:9 (v/v) with bacterial growth medium to desired bacterial concentrations (<10 CFU/mL final solution) and plated to independently confirm CFU/mL blood. Saponin was immediately added and the samples shaken for 15 minutes to achieve selective blood cell lysis. After hemolysis, bacteria were spun down and washed with PBS. The pellets were resuspended in bacterial growth medium and incubated at 37° C. for 2 hours, followed by another 3-hour incubation with antibiotics at various fractions of the minimum inhibition concentration (MIC, as independently determined by microdilution from the pure starting culture, Table 1) for sensitive strains or at the CLSI MIC resistant breakpoints^(12) for the highly resistant strains. Changes in scattered light signals largely resulting from bacterial growth inhibition were monitored by flow cytometry, and the difference in the 2-D scatter histograms with and without antibiotic treatment was quantified with PB-sQF statistics.^(1) Using PB-sQF, distance was calculated for each antibiotic concentration relative to its own no-antibiotic control and expressed as “fold distance” relative to the 99% confidence limit distance between the no-antibiotic control and the sensitive breakpoint. This allowed comparison of fold distances among all samples as each is individually paired to its own control, as is each replicate.
(§2) All clinical isolates (E. coli strains Mu14S and Mu890, K. pneumoniae strains Mu670 and Mu55, A. nosocomialis strains M2) were obtained from the Georgia Emerging Infection Program (GEIP). The MIC of each isolate was determined by a clinical microbiology laboratory using post blood culture automated AST and confirmed using broth microdilution in our laboratory. The MICs of each strain were measured to be as follows. For A. nosocomialis strain M2, 1 μg/mL tetracycline, 2 μg/mL gentamicin, and >1024 μg/mL ampicillin. For E. coli strain Mu890, 1 μg/mL tetracycline, 8 μg/mL gentamicin, and >1024 μg/mL ampicillin. For E. coli strain Mu14S, >64 μg/mL tetracycline, 8 μg/mL gentamicin, and >1024 μg/mL ampicillin. For K. pneumoniae strain Mu55, >64 μg/mL tetracycline, 1 μg/mL gentamicin, and >1024 μg/mL ampicillin. For K. pneumoniae strain Mu670, 2 μg/mL tetracycline, 4 μg/mL gentamicin, and >1024 μg/mL ampicillin.

E. coli Mu14S = experiment: MIC by broth microdilution AST; conditions: for MIC: microdilution from pure culture; for MIC (S/I/R): class according to 2016 CLSI handbook
Procedure: as §1, §2

E. coli Mu890 = experiment: MIC by broth microdilution AST; conditions: for MIC (S/I/R): class according to 2016 CLSI handbook; for MIC: microdilution from pure culture
Procedure: as §1, §2

K. pneumoniae Mu55 = experiment: MIC by broth microdilution AST; conditions: for MIC: microdilution from pure culture; for MIC (S/I/R): class according to 2016 CLSI handbook
Procedure: as §1, §2

K. pneumoniae Mu670 = experiment: MIC by broth microdilution AST; conditions: for MIC: microdilution from pure culture; for MIC (S/I/R): class according to 2016 CLSI handbook
Procedure: as §1, §2

E. coli strain Mu14S = experiment: FAST flow cytometry AST with PB-sQF, bacteria recovered from 10% human blood; conditions: Mu14S treated at each resistant breakpoint (tetracycline 16 μg/mL)
Procedure: as §1
(§3) To simulate a blood specimen from a patient with bacteremia, the isolates were grown, diluted to the desired CFU/mL in blood (ZenBio, Research Triangle Park, NC) and saponin was added to achieve the final diluted sample. Initial bacterial cultures were prepared using Luria-Bertani (LB) broth for (E. coli) or cation-adjusted Mueller-Hinton broth (CAMHB). The fresh bacterial cultures started from ˜0.05 optical density (OD) by inoculating a 6-mL fresh growth medium with overnight culture were grown in an incubator shaker (MaxQ 4000, Thermal Fisher Scientific, Waltham, MA) at 37° C. and 225 rpm. After the culture reached mid-log phase, bacteria were collected and diluted into ˜10 CFU/mL through serial 10-fold dilutions. Bacterial densities were determined by plating onto LB plates. The final 10-fold dilution was performed by adding 500 μL of 100 CFU/mL into 4500 μL of 10% human blood in medium.
(§4) A 2.5% (w/v) of saponin solution was prepared, sonicated (Branson 2510, Emerson, St. Louis, MO) for 20 minutes and spun down with a clinical centrifuge (Centrific Model 228, Fisher Scientific, Waltham, MA) for 4 minutes. The supernatant cleared of particulates was collected. 500 μL of 2.5% saponin was then added to the 5 mL of 10% human blood sample with ˜10 CFU/mL, described above and the mixtures were shaken at 300 rpm for 15 minutes at 37° C. After the saponin treatment, the bacteria were pelleted and washed with 2 mL of phosphate buffered saline (PBS) (Life Technologies, Carlsbad, CA) using a clinical centrifuge for 2 minutes. Bacterial growth medium (2.5 mL) was then added to the tube and incubated for 2 hours at 37° C. and 225 rpm.
(§5) After the 2-hour incubation, 500-μL aliquots of the suspension were added to each of 4 wells in a 12-well microtiter plate that contained 500 μL of growth medium with or without antibiotic at 2-fold of specified concentrations. The plate was then incubated at 37° C. for 3 hours. Bacteria were collected by centrifugation (Centrifuge 5417R, Eppendorf) and resuspended in 200 μL of PBS for flow cytometry detection. To ensure each clinical isolate was tested at its MIC values of the tested antibiotics, the initial bacterial cultures at the 1000 CFU/mL dilution were also tested for each experiment (FIGS. 4A-4F, 5A-5F, 7A-7F, 8A-8F, and 9A-9F), confirming that the antibiotic concentrations indeed inhibited bacterial growth.
(§6) Cytometric data were collected by BD LSRFortessa flow cytometer (Becton Dickinson, Franklin Lake, NY) equipped with a 100 mW, 488 nm laser for the scatter signal. […]

E. coli strain Mu890 = experiment: as above; conditions: Mu890 treated with 32 μg/mL (Enterobacteriaceae resistance breakpoint), vs no-antibiotic control
Procedure: as §1, §3, §4, §5, §6

[1] = system: A. nosocomialis strain M2; experiment: as above; conditions: M2 spiked in 10% human blood, assayed within 8 hrs of simulated blood draw
Procedure: Varied counts of bacteria were mixed with human blood and diluted 1:9 (v/v) with bacterial growth medium to desired bacterial concentrations (<10 CFU/mL final solution) and plated to independently confirm CFU/mL blood. Saponin was immediately added and the samples shaken for 15 minutes to achieve selective blood cell lysis. After hemolysis, bacteria were spun down and washed with PBS. […] This allowed comparison of fold distances among all samples as each is individually paired to its own control, as is each replicate.
To simulate a blood specimen from a patient with bacteremia, the isolates were grown, diluted to the desired CFU/mL in blood (ZenBio, Research Triangle Park, NC) and saponin was added to achieve the final diluted sample. Initial bacterial cultures were prepared using Luria-Bertani (LB) broth for (E. coli) or cation-adjusted Mueller-Hinton broth (CAMHB). The fresh bacterial cultures started from ˜0.05 optical density (OD) by inoculating a 6-mL fresh growth medium with overnight culture were grown in an incubator shaker (MaxQ 4000, Thermal Fisher Scientific, Waltham, MA) at 37° C. and 225 rpm. […] Bacterial densities were determined by plating onto LB plates. […]
Cytometric data were collected by BD LSRFortessa flow cytometer (Becton Dickinson, Franklin Lake, NY) equipped with a 100 mW, 488 nm laser for the scatter signal. […] Data were recorded with FACSDiVa provided by BD. […]

[2] = system: 10% human blood samples without bacteria inoculation; experiment: Antibiotic-treated 10% human blood only control (no bacteria), flow cytometry; conditions: 10% human blood without bacteria, around the resistance breakpoints of Enterobacteriaceae
Procedure: FIGS. 6A-6D. Antibiotic-treated 10% human blood only results. Cytometric data with (FIG. 6A) Ampicillin (FIG. 6B) Tetracycline (FIG. 6C) Gentamicin. The greyscale plots are the no-antibiotic controls and the black contour plots are the antibiotic-treated data with the antibiotic concentration indicated at each plot. (FIG. 6D) PB-sQF results for FIGS. 6A-6C). […] For each antibiotic, the resistant breakpoints of Enterobacteriaceae are 16 μg/mL for tetracycline and gentamicin and 32 μg/mL for ampicillin.
This confirms that the gentamicin sensitivity of Mu14S observed after blood culture^(1) can also be observed on much shorter timescales with FAST. Overnight plating confirms that initial Mu14S counts were 3, 2, 5 and CFU/mL for tetracycline, gentamicin and ampicillin data after 10-fold dilution of the blood/bacteria mixture, corresponding to FAST being performed on whole blood samples containing ˜30, ˜20 and ˜50 CFU/mL. […] Thus, diluting bacterimic blood specimens 1:9 (v:v) directly into saponin-containing growth medium provides a path to ASTs within 8 hours from initial blood draw, with excellent results matching independent (36-44 hrs) MIC determinations from pure, overnight cultures (˜10^8 CFU/mL) that could only be initiated after (˜24 hr) positive blood culture.

[3] = system: E. coli strain ATCC 33456; experiment: MIC of lab strain E. coli
[4] = system: Lab-strain E. coli (ATCC); experiment: FAST with low bacterial counts (500 counts by flow cytometry); conditions: each antibiotic at MIC, ¼ MIC and 1/16 MIC, bars beyond the 99% confidence line
Source text: FIG. 14. Bactericidal Antibiotic-induced changes for low counts of E. coli. Lab-strain E. coli (ATCC) ASTs performed with 500 counts by flow cytometry with gentamicin (Gen), penicillin G (PenG), and tetracycline (Tet) each at MIC, ¼ MIC and 1/16 MIC. This strain is seen to be sensitive to all three antibiotics, as the bars extend beyond the 99% confidence line.
While both morphology and growth inhibition occur upon exposure to antibiotics near the minimum inhibitory concentration, standard ASTs are based on growth inhibition alone. The presence of bacteria is clearly indicated by the presence of a particular scattering peak in the multidimensional histogram. This is much more sensitive and less affected by background than is shifts in a peak resulting from morphological changes upon antibiotic exposure. […] For even a few hundred counts, the presence of a bacterial population can be readily assessed with flow cytometry, but error bars and statistical distances must be properly determined relative to no-antibiotic controls. When too few counts for triplicate runs exist, control and each antibiotic exposure histograms are treated as probability distributions that are representative of the true mother distribution for each condition. Each histogram is binned (either adaptively with probability binning or using regular bins) and the distribution of data within each bin is determined. […]

[5] = system: E. coli strain ATCC 33456; experiment: Pre-blood culture AST with sheep blood, flow cytometry and PB-sQF
Procedure: (§7) To search for the condition to separate bacteria from the blood cells, sheep blood was used as a substitute for human blood. In order to remove the blood cells that have a concentration that is 10^6 to 10^7 times higher than the bacteria, 100 μL of 10% (w/v) saponin was added to 1 mL of sheep blood that was spiked with either 100 μL of LB or 10^4 CFU/mL E. coli strain ATCC 33456 (final concentration ˜10^3 CFU/mL) and incubated for 15 minutes at room temperature to lyse the blood cells. The same procedure was applied to 12 samples loaded in eppendorf tubes. These samples were then washed with PBS and resuspended in 500 μL L B broth. All 12 samples were added to the 12-well plate loaded with 480 μL of LB broth and/or penicillin g with 2× higher desired concentrations and 20 μL, 45 μM of MH-IR786. The plate was incubated for 5 hours. Each sample was then collected and analyzed by flow cytometry.

100% sheep blood only = experiment: Pre-blood culture AST, 100% sheep blood only samples; conditions: no-antibiotic to 1×MIC
Procedure: as §7

[6] = Acinetobacter nosocomialis, read-out: MIC
[7] = Escherichia coli, read-out: MIC
[8] = Escherichia coli, MU890, E. coli Mu890, read-out: MIC
[9] = Klebsiella pneumoniae, read-out: MIC

Row | Compound | MIC (A. nosocomialis M2; [6]) [µg/mL] | MIC (S/I/R) (A. nosocomialis M2) | MIC (A. nosocomialis M2) [µg/mL] | MIC (E. coli Mu14S; [7]) [µg/mL] | MIC (S/I/R) (E. coli Mu14S) | MIC (E. coli Mu14S) [µg/mL] | MIC (S/I/R) (E. coli Mu890; E. coli Mu890) | MIC (E. coli Mu890; [8]) [µg/mL] | MIC (K. pneumoniae Mu55; [9]) [µg/mL] | MIC (S/I/R) (K. pneumoniae Mu55) | MIC (K. pneumoniae Mu55) [µg/mL] | MIC (K. pneumoniae Mu670; [9]) [µg/mL] | MIC (S/I/R) (K. pneumoniae Mu670) | other results
1 | CN(C)[C@@H]1C(O)=C(C(N)=O)C(=O)[C@@]2(O)C(O)=C3C(=O)c4c(O)cccc4[C@@](C)(O)[C@H]3C[C@@H]12 [Tetracycline] | 1 (≈ 2.25 µM) | (S) | 1 (≈ 2.25 µM) | > 64 | (R) | >64 | (S) | 1 (≈ 2.25 µM) | > 64 | (R) | >64 | 2 (≈ 4.5 µM) | (S) | MIC (E. coli Mu890; E. coli Mu890): 1 µg/mL (≈ 2.25 µM); MIC (E. coli Mu890; E. coli Mu890, listed as tetracycline): 2 µg/mL (≈ 4.5 µM)
2 | CC1(C)S[C@@H]2[C@H](NC(=O)[C@H](N)c3ccccc3)C(=O)N2[C@H]1C(=O)O [Ampicillin] | > 1020 | (R) | > 1024 | > 1020 | (R) | > 1024 | (R) | > 1020 | > 1020 | (R) | > 1024 | > 1020 | (R) | MIC (K. pneumoniae Mu670): > 1024 µg/mL; FAST antibiotic-induced scatter signal change (E. coli strain Mu14S): remained statistically unchanged; FAST antibiotic-induced scatter signal change (E. coli strain Mu890): indistinguishable from those of the no-antibiotic control; PB-sQF FAST susceptibility [1]: resistant; scattered light histograms change [2]: do not significantly change
3 | CC1(C)S[C@@H]2[C@H](NC(=O)Cc3ccccc3)C(=O)N2[C@H]1C(=O)O [penicillin g] |  |  |  |  |  |  |  |  |  |  |  |  |  | 1×MIC [3]: 32 µg/mL; PB-sQF AST susceptibility at low counts [4]: sensitive; cytometric data, growth inhibition ([5]; 1000 CFU/mL E. coli spiked sheep blood, 1×MIC, 5 hours): clear growth inhibition; PB-sQF distance ([5]; 1000 CFU/mL and 10^5 CFU/mL spiked sheep blood, from 1/16×MIC to 1×MIC): clear increment of distance increases; cytometric data of blood-only samples (100% sheep blood only): remained very similar to each other
